Tests used:
HsOr152 = target: T1, HsOr152 (Harpegnathos saltator, UniProt Z9SO02V7Q0); assay: single-sensillum recording of Drosophila ab2A neurons expressing the receptor; type: cell-based; settings: 20 nmol dosed on heated cartridge; with DmOrco; excitatory; solvent (pentane) response subtracted
T1 construct: V subfamily OR; full-length, UAS-HsOr152 (pUASg.attB, attP40) in D. melanogaster ab2A neurons by Orco-GAL4; complex with endogenous DmOrco (D. melanogaster); with Odorant receptor coreceptor (Drosophila melanogaster)
T1 sequence (Z9SO02V7Q0 1-385): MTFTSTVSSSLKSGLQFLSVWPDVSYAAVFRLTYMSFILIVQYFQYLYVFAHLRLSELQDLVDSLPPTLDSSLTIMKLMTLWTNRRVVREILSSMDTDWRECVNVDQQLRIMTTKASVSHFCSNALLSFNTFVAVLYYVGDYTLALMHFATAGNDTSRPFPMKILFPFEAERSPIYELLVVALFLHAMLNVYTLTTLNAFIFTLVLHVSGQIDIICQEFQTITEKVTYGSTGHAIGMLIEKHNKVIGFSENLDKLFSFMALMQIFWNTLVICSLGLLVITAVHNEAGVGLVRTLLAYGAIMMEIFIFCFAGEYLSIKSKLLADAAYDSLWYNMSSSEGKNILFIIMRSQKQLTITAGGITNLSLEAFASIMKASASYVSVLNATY
T1 sequence (Q9VNB5 1-486 partner): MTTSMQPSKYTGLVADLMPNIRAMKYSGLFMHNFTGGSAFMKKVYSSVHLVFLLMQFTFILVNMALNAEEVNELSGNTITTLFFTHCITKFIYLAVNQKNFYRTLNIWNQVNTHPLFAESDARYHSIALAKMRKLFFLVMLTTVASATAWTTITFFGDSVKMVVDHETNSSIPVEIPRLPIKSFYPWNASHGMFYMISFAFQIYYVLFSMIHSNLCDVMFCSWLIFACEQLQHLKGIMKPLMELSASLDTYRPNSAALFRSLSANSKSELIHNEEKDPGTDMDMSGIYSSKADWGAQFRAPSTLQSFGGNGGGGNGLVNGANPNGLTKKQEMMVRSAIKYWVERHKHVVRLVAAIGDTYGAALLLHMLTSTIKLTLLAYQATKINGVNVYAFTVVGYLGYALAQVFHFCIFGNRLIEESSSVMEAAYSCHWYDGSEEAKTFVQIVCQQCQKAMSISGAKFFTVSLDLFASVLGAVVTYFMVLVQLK

HsOr115 = target: T2, HsOr115 (Harpegnathos saltator, UniProt Z9I713BLV2); assay: as above; type: cell-based; settings: 20 nmol dosed on heated cartridge; with DmOrco; excitatory; solvent (pentane) response subtracted
T2 construct: full-length, UAS-HsOr (pUASg.attB, attP40) in D. melanogaster ab2A neurons by Orco-GAL4; complex with endogenous DmOrco (D. melanogaster); with Odorant receptor coreceptor (Drosophila melanogaster)
T2 sequence (Z9I713BLV2 1-398): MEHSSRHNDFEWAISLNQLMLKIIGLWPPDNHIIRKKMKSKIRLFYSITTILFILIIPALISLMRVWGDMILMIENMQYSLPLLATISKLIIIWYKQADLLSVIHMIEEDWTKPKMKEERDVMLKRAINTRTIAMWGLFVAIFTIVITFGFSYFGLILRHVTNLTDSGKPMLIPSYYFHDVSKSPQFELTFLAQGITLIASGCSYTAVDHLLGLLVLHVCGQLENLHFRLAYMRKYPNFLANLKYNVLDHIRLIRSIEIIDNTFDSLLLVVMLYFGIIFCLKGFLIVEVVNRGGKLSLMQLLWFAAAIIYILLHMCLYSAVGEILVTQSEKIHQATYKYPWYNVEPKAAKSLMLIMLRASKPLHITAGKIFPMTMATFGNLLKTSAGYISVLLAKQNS
T2 sequence (Q9VNB5 1-486 partner): T1 sequence (Q9VNB5 1-486 partner)

Row | SMILES | mean response (Δspikes/s) at 20 nmol (HsOr152) | response (Δspikes/s) at 20 nmol (HsOr115)
1 | CCCCCCCCCCCCCCCCCCCCCCCCCCCC [C28, octacosane] | 87.5 Δspikes/s | 
2 | CCCCCCCCCCCCCCCCCCCCCCCCCCCCCC [C30] |  | 33.0 Δspikes/s

Source: PMC13050904, “Sensitivity to cuticular hydrocarbons across the odorant receptor family in the Indian jumping ant, Harpegnathos saltator” (Frontiers in Insect Science, 2026)
